Each compound was assayed against Muscarinic acetylcholine receptor M5 (Rattus norvegicus) (UniProt P08911) (assay: rat M5 receptor negative allosteric modulators, selectivity assay for human M5 NAM project, cell-based, rat ortholog, CHO-K1, Fluo-4 calcium flux (AID 743104)). Details: CHO-K1 rat M5, Fluo-4 calcium flux, ACh EC20; call rule not given here.
Muscarinic acetylcholine receptor M5 (Rattus norvegicus), sequence (P08911 whole entry, looked up): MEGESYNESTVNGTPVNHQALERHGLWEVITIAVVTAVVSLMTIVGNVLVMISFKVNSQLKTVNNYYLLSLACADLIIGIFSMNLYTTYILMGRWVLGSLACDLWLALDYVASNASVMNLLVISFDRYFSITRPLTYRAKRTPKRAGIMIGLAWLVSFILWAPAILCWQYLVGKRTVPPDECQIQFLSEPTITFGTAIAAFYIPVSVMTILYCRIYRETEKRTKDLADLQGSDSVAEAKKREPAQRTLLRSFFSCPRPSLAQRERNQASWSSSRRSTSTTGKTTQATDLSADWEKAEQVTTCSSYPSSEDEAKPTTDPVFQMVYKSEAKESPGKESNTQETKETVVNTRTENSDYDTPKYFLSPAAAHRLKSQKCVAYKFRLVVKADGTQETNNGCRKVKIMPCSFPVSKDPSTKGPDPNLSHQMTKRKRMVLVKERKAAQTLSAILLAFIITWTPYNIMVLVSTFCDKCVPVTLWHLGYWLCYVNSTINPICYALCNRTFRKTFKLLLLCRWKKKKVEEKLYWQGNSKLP

IC50, active:
O=C(c1ccc(F)c(F)c1)N1CCN2C(=O)c3ccccc3C12c1ccccc1 (stereo not drawn) 2 µM
O=C(c1ccc(F)cc1)N1CCN2C(=O)c3ccccc3C12c1ccccc1 (stereo not drawn) 6.21 µM
O=C(c1cc(F)cc(F)c1)N1CCN2C(=O)c3ccccc3C12c1ccc(Cl)cc1 (stereo not drawn) 3.54 µM

— PubChem BioAssay AID743104 (Vanderbilt Specialized Chemistry Center, 2013)
